The source of these data is ChEMBL document CHEMBL1201862, “PubChem BioAssay data set” (2004).

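Results reflect a 48-hour exposure of cells in 96-well plates to compound at five concentrations. Here, GI50 denotes the concentration required for 50% inhibition of growth.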 Active and inactive are the calls of the source. Cut-off read from the data, not from the text of the source: active = GI50 up to about 1.1 µM and inactive = higher.

Among the test systems are CAKI-1; CCRF-CEM; HT-29; IGROV-1; KM12; M14; MDA-MB-231; Malme-3M; NCI-H522; OVCAR-3; OVCAR-4; RXF 393; SK-MEL-2; SK-MEL-5; SN12C; SNB-75; T47D; TK-10; UACC-62.
What all share (assay): growth of human tumour cells (NCI), 48 h

Regarding `O=[N+]([O-])/C(C(Cl)=C(Cl)Cl)=C1/OCCS1`, the GI50 in the experiment with CAKI-1 was 29.6 µM (inactive); with CCRF-CEM it was 15.9 µM (inactive); in the experiment with HT-29, 27.5 µM (inactive); in the experiment on IGROV-1 it was 24.4 µM (inactive); in the experiment with KM12, 31.9 µM (inactive); in the experiment on M14 it was 46.7 µM (inactive). Besides, the GI50 in the experiment on MDA-MB-231 is 17.5 µM (inactive); in the experiment with Malme-3M it was 17.7 µM (inactive); in the experiment with NCI-H522, 32.4 µM (inactive); with OVCAR-3 it was 14.4 µM (inactive); in the experiment on OVCAR-4 it was 30.4 µM (inactive); with RXF 393, 19.3 µM (inactive). The GI50 in the experiment on SK-MEL-2 was 27.7 µM (inactive); in the experiment on SK-MEL-5, 19.1 µM (inactive); in the experiment on SN12C, 23 µM (inactive); with SNB-75 it was 13.9 µM (inactive); in the experiment with T47D, 37.2 µM (inactive); with TK-10, 25.9 µM (inactive). Besides, in the experiment with UACC-62, the GI50 was 25.5 µM (inactive).

With `O=C(Cn1ccnc1[N+](=O)[O-])c1ccccc1`, the GI50 in the experiment on CAKI-1, with CCRF-CEM, with HT-29, with IGROV-1, in the experiment on KM12 and in the experiment on M14 was > 100 µM (inactive) each time. Besides, the GI50 in the experiment on Malme-3M, in the experiment with NCI-H522, in the experiment with OVCAR-3, with OVCAR-4, in the experiment on RXF 393 and with SK-MEL-2 was > 100 µM (inactive) each time. Besides, the GI50 with SK-MEL-5, in the experiment with SN12C, in the experiment with SNB-75, in the experiment on TK-10 and in the experiment with UACC-62 was > 100 µM (inactive) each time.

With `O=C(O)C1=NN=C(C(=O)O)NN1`, the GI50 with CAKI-1, in the experiment on CCRF-CEM, with HT-29, in the experiment on IGROV-1, with KM12 and with M14 was > 100 µM (inactive) throughout. Further, the GI50 in the experiment with Malme-3M, in the experiment with NCI-H522, in the experiment with OVCAR-3, in the experiment on OVCAR-4, with RXF 393 and with SK-MEL-2 was > 100 µM (inactive) throughout. Also, the GI50 in the experiment with SK-MEL-5, in the experiment with SN12C, with SNB-75, in the experiment on TK-10 and in the experiment on UACC-62 was > 100 µM (inactive) throughout.

On to `Cc1ccc2c(c1)CC1(Cc3ccccc3C1=O)C2=O` (stereo not drawn), for which the GI50 in the experiment with CCRF-CEM, in the experiment with HT-29, in the experiment with IGROV-1, with KM12, in the experiment with M14 and with MDA-MB-231 was > 100 µM (inactive) throughout. For the same compound, the GI50 with Malme-3M, with NCI-H522, in the experiment with OVCAR-3, with OVCAR-4, in the experiment on RXF 393 and with SK-MEL-5 was > 100 µM (inactive) in each case. Moreover, the GI50 in the experiment with SN12C, with SNB-75, with T47D, in the experiment with TK-10 and with UACC-62 was > 100 µM (inactive) throughout.

In the case of `Cn1cc2ccccc2c1-c1nc(F)nc(OCC(=O)[C@H]2CCC3[C@@H]4CCC5=CC(=O)CC[C@]5(C)C4[C@@H](O)C[C@@]32C)n1` (stereo partly drawn), the GI50 in the experiment on CAKI-1 is 3.92 µM (inactive); in the experiment with CCRF-CEM, 4.31 µM (inactive); with HT-29, 21.6 µM (inactive); in the experiment with IGROV-1, 7.48 µM (inactive); in the experiment with KM12 it was 16.6 µM (inactive); with M14, 20.3 µM (inactive). Besides, the GI50 was 18.9 µM (inactive) in the experiment on Malme-3M; 15.2 µM (inactive) with NCI-H522; 17 µM (inactive) in the experiment on OVCAR-3; 14.9 µM (inactive) in the experiment with OVCAR-4; 3.92 µM (inactive) with RXF 393; 13.2 µM (inactive) in the experiment on SK-MEL-2. The GI50 is 20.3 µM (inactive) in the experiment on SK-MEL-5; 15.7 µM (inactive) in the experiment with SN12C; 19 µM (inactive) in the experiment with SNB-75; 23.1 µM (inactive) in the experiment with TK-10; 17.1 µM (inactive) in the experiment on UACC-62.

`CCN1CCN(c2nc3ccccc3nc2C(=O)c2ccc(OC)cc2)CC1`: the GI50 was 39.8 µM (inactive) in the experiment on CAKI-1; 23.9 µM (inactive) in the experiment with HT-29; 75.9 µM (inactive) with IGROV-1; 24.8 µM (inactive) with KM12; 15 µM (inactive) in the experiment with M14; 16.5 µM (inactive) with Malme-3M. Further, the GI50 in the experiment with NCI-H522 was 53.6 µM (inactive); in the experiment on OVCAR-3, 69.7 µM (inactive); with OVCAR-4, 57.5 µM (inactive); with RXF 393 it was 12.4 µM (inactive); in the experiment with SK-MEL-2, 41 µM (inactive); with SK-MEL-5 it was 37.2 µM (inactive). Further, the GI50 in the experiment with SNB-75 is 37.2 µM (inactive); in the experiment with T47D, > 100 µM (inactive); in the experiment on TK-10, 22.6 µM (inactive); in the experiment with UACC-62 it was 20.6 µM (inactive).

With `CC(C)(C)c1cc([N+](=O)[O-])cc([N+](=O)[O-])c1O` [DINOTERB], the GI50 in the experiment on CAKI-1 is 5.6 µM (inactive); in the experiment on CCRF-CEM, > 10 µM (inactive); in the experiment on HT-29, > 10 µM (inactive); with IGROV-1 it was > 10 µM (inactive); in the experiment with KM12, > 10 µM (inactive); in the experiment on M14, > 10 µM (inactive). The GI50 in the experiment on MDA-MB-231, in the experiment on NCI-H522, in the experiment on OVCAR-3, with OVCAR-4, in the experiment with RXF 393 and in the experiment with SK-MEL-2 was > 10 µM (inactive) each time. For the same compound, the GI50 was 6.47 µM (inactive) in the experiment with SK-MEL-5; > 10 µM (inactive) in the experiment with SN12C; > 10 µM (inactive) with SNB-75; > 10 µM (inactive) in the experiment with T47D; > 10 µM (inactive) with TK-10; > 10 µM (inactive) in the experiment on UACC-62.

In the case of `COc1ccc2[nH]c3c4c(cc(-c5ccccc5)c3c2c1)C(=O)N(c1ccccc1)C4=O`, the GI50 in the experiment on CAKI-1 was 27 µM (inactive); with CCRF-CEM, 4.97 µM (inactive); in the experiment on HT-29, 22.7 µM (inactive); in the experiment with IGROV-1, 41.5 µM (inactive); in the experiment with KM12 it was 33.3 µM (inactive); in the experiment with M14, 19.3 µM (inactive). The GI50 was 20.4 µM (inactive) with Malme-3M; 8.24 µM (inactive) with NCI-H522; 17.9 µM (inactive) in the experiment with OVCAR-3; 0.411 µM (active) in the experiment on OVCAR-4; 13 µM (inactive) in the experiment on RXF 393; 21.3 µM (inactive) in the experiment on SK-MEL-2. Also, the GI50 was 12.3 µM (inactive) in the experiment with SK-MEL-5; 21.5 µM (inactive) with SN12C; 6.3 µM (inactive) with SNB-75; 64.9 µM (inactive) with TK-10; 21.7 µM (inactive) in the experiment with UACC-62.
